Experimental data: patent publication US8993564B2, “7-azaindole derivatives suitable for treatment of cancers” (Merck Patent GmbH, priority 2011, dated 2015)

System: not given
Assay: not given
Settings: not given
Compound `Cn1cc(-c2cnc3[nH]cc(-c4nnc(NCc5ccc6c(c5)OCO6)o4)c3c2)cn1` [Compound 82, Benzo-1,3-dioxol-5-ylmethyl-{5-[5-(1-methyl-1H-pyrazol-4-yl)-1H-pyrrolo[2,3-b]pyridin-3-yl]-1,3,4-oxadiazol-2-yl}amine] has a melting point of 281 to 283 °C. Compound `COc1ccccc1CNc1nnc(-c2c[nH]c3ncc(-c4cnn(C)c4)cc23)o1` [Compound 63, (2-Methoxybenzyl)-{5-[5-(1-methyl-1H-pyrazol-4-yl)-1H-pyrrolo[2,3-b]-pyridin-3-yl]-1,3,4-oxadiazol-2-yl}-amine] has a melting point of 253 to 254 °C. `Cn1cc(-c2cnc3[nH]cc(-c4nnc(Nc5ccccc5)o4)c3c2)cn1` [Compound 75, {5-[5-(1-Methyl-1H-pyrazol-4-yl)-1H-pyrrolo[2,3-b]pyridin-3-yl]-1,3,4-oxadiazol-2-yl}phenylamine] showed a melting point of 324 to 326 °C. `Cn1cc(-c2cnc3[nH]cc(-c4nnc(Nc5ccccc5F)o4)c3c2)cn1` [Compound 60] showed a melting point of 295 to 297 °C. In the case of `CCOc1ccccc1Nc1nnc(-c2c[nH]c3ncc(-c4cnn(C)c4)cc23)o1` [Compound 62, (2-Ethoxyphenyl)-{5-[5-(1-methyl-1H-pyrazol-4-yl)-1H-pyrrolo[2,3-b]-pyridin-3-yl]-1,3,4-oxadiazol-2-yl}-amine], the melting point is reported as 274 to 275 °C.

Biological target: T1, PDK1 (Homo sapiens, UniProt O15530)
T1 construct: His6 (N)
T1 sequence (O15530 51-556 limits assumed): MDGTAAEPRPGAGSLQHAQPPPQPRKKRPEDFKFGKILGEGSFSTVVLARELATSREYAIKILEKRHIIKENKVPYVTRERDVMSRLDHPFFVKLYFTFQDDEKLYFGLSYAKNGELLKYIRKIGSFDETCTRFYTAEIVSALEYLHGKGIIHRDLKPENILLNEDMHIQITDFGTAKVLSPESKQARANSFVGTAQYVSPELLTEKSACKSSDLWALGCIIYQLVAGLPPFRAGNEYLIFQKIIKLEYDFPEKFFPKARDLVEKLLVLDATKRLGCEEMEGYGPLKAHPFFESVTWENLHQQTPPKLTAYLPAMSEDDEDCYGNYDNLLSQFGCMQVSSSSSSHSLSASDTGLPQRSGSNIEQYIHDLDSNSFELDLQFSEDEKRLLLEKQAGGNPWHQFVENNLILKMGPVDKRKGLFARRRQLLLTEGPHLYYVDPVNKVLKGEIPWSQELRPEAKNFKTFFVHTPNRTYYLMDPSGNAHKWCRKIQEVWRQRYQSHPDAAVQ
Assay: Test for the inhibition of PDK1 (flashplate, 33P-ATP), enzymatic
Type: biochemical
Settings: prior art compounds vs compounds according to the invention
Experimental: 4.0 Test for the Inhibition of PDK1
The experimental batches are carried out in a flashplate system with 384 wells/microtitration plate.
In each case, the PDK1 sample His6-PDK1(1-50)(3.4 nM), the PDK1 substrate biotin-bA-bA-[…] (400 nM), 4 μM ATP (with 0.2 μCi of ^33P-ATP/well) and the test substance in 50 μl of conventional experimental solution per well are incubated at 30° C. for 60 min. The test substances are employed in corresponding concentrations (if desired in a dilution series). The control is carried out without test substance. The reaction is stopped using standard methods and washed. The activity of the kinase is measured via the incorporated radioactivity in top count. In order to determine the non-specific kinase reaction (blank value), the experimental batches are carried out in the presence of 100 nM staurosporine.
The radioactivity (decompositions per minute) of the blank value (no use of test substance in the presence of staurosporine) is subtracted from all other radioactivity values. The controls (kinase activity without test substance) are set equal to 100 percent and all other radioactivity values (after subtracting the blank value) are expressed set in relation thereto (for example in % of the control).
IC50 values (50% inhibition) are determined with the aid of statistics programmes, such as, for example, RS1.
In the case of `COc1cc(Nc2nnc(-c3c[nH]c4ncccc34)o2)cc(OC)c1` [Compound 89, (3,5-Dimethoxyphenyl)-[5-(1H-pyrrolo[2,3-b]pyridin-3-yl)-1,3,4-oxadiazol-2-yl]amine], the “inhibition of PDK1 (enzymatic), activity compared with the compounds according to the invention” value is reported as “lower activity”. In the case of `COc1cccc(CNc2nnc(-c3c[nH]c4ncc(-c5cn[nH]c5)cc34)o2)c1` [Compound 90, (3-Methoxybenzyl)-{5-[5-(1H-pyrazol-4-yl)-1H-pyrrolo [2,3-b]pyridin-3-yl]-1,3,4-oxadiazol-2-yl}amine], the “inhibition of PDK1 (enzymatic), activity compared with the compounds according to the invention” value is reported as “lower activity”. For `COc1cccc(CNc2nnc(-c3c[nH]c4ncccc34)o2)c1` [Compound 95, (3-Methoxybenzyl)-[5-(1H-pyrrolo-[2,3-b]pyridin-3-yl)-1,3,4-oxadiazol-2-yl]amine], the “inhibition of PDK1 (enzymatic), activity compared with the compounds according to the invention” value was “lower activity”. With `c1cncc(CNc2nnc(-c3c[nH]c4ncccc34)o2)c1` [Compound 88, Pyridin-3-ylmethyl-[5-(1H-pyrrolo-[2,3-b]pyridin-3-yl)-1,3,4-oxadiazol-2-yl]amine] the “inhibition of PDK1 (enzymatic), activity compared with the compounds according to the invention” value was “lower activity”.
